Measurements: patent US20240424004A1, “COMBINATION OF TLR LIGANDS, COMPOUNDS LABELLING TUMORS FOR IMMUNE ATTACK, ANTI-CD40 ANTIBODIES AND INHIBITORS OF GLUTAMINE METABOLISM FOR TREATING CANCER” (priority 2021, published 2024)

Experiments:
Panc02 cells [1] = experiment: Example 4: bilateral Panc02 model, i.t. MBTA + i.p. DON in two timing regimes; assay type: in vivo; details: for prolongation of mice survival: FIG. 4C
Method: (§1) Subcutaneous transplantation: Mice were subcutaneously injected with 4×10^5 Panc02 cells in 0.1 ml DMEM or 4×10^5 B16-F10 cells in 0.1 ml RPMI 1640 medium without additives into pre-shaved groin (right or both right and left).
(§2) MBTA immunotherapy: 50 μl of the therapeutic mixture consisting of 0.5 mg R-848, HCl form+0.5 mg poly (I:C), 0.5 mg LTA and 0.4 mg anti-CD40/ml of 0.2 mM mannan-BAM in PBS was administered intratumorally on days 0, 1, 2, 8, 9, 10, 16, 17, 18, 24, 25, and 26. The combination of R-848, poly (I:C), LTA, mannan-BAM and anti-CD40 antibody is hereinafter referred to as ‘MBTA’. In the case of the bilateral Panc02 tumor model, MBTA therapy was always injected only into the right subcutaneous tumor.
(§3) Evaluation of treatment: Tumor sizes were measured every other day using a digital calliper. The formula V=(π/6)AB^2, A being the largest tumor size, B being the smallest tumor size, was used to calculate tumor volume.
(§4) The areas under the curves (AUC) were calculated to evaluate tumor growth. The obtained values were statistically evaluated by one-way ANOVA with unequal post hoc test. Kaplan-Meier survival curves were evaluated using the long-rank test. STATISTICA 12 software (StatSoft, Inc., Tulsa, OK, USA) was used for all statistical evaluations. Error bars represent standard error of the mean (SEM).
To improve MBTA/DON combined therapy outcomes we tested the intraperitoneal administration of DON in combination with i.t. MBTA therapy. The total amount of DON (2 mg/mouse/therapy) was applied in two different regimes as further specified.
C57BL/6 mice were s.c. inoculated with Panc02 cells in both right and left flank. After 12 days, mice were randomized into four groups (n=6/group): Group treated with PBS applied in the right tumor; group treated with MBTA applied in the right tumor; group treated with MBTA applied in the right tumor, and DON applied i.p. (13 doses); group treated with MBTA applied in the right tumor, and DON applied i.p. (5 doses, red). MBTA (PBS in the control group) was applied in pulse regime on days 0, 1, 2, 8, 9, 10, 16, 17, 18, 24, 25, and 26. DON was administered i.p. on days 5, 13, 21, 29, 37 (400 μg) and 1, 3, 5, 7, 9, 11, 13 15 17 19 21, 23, 25 (154 μg), respectively.
FIG. 4A, B: Growth of right/left tumors. Statistical analysis was performed by calculating AUC (area under the curve) values using a one-way ANOVA test with Tukey's post hoc test (* p<0.05, **** p<0.001, ***** p<0.0005), FIG. 4 C: Survival analysis.

Panc02 cells [2] = experiment: Example 7: bilateral Panc02 model, i.t. MBTA + i.p. DON, efficacy and side effects; assay type: in vivo; details: DON 400 μg i.p., days 1,8,15,22,29, with i.t. MBTA
Method: as §1, §2, §3
as §4, with “(SEM). […]” for “(SEM).”

Panc02 cells [3] = experiment: Example 5: bilateral Panc02 model, i.t. MBTA + s.c. DON in different dosages; assay type: in vivo, C57BL/6 mice; details: with i.t. MBTA, DON s.c. 80 μg or 400 μg, days 1,9,17,25,33
Method: as §1, §2, §3
as §4, with “(SEM). […]” for “(SEM).”

Panc02 cells [4] = experiment: Example 6: bilateral Panc02 model, i.t. MBTA + DON i.t. (left tumor) versus i.p.; assay type: in vivo, C57BL/6 mice; details: with MBTA in right tumor, days 1,8,15,22,29
Method: as §1, §2, §3
as §4, with “(SEM). […]” for “(SEM).”

[N-]=[N+]=CC(=O)CC[C@H](N)C(=O)O [DON, 6-diazo-5-oxo-norleucine]
early deaths of treated mice (Panc02 cells [1]; DON i.p. with a sufficient interval between each application, with i.t. MBTA (summary of Examples 4 to 6)): did not observe any early deaths
prolongation of mice survival (Panc02 cells [1]; with i.t. MBTA, DON i.p. 154 μg, 13 doses, every other day): evident but not statistically significant
prolongation of mice survival (Panc02 cells [1]; with i.t. MBTA, DON i.p. 400 μg, 5 doses): evident but not statistically significant
tolerability of regime / early death (Panc02 cells [1]; with i.t. MBTA, DON i.p. every other day (154 μg, 13 doses), n=6/group): too aggressive and resulted in early death of three mice
water and food consumption (Panc02 cells [2]; FIG. 7D, E): without any influence
weight of treated mice (Panc02 cells [2]; FIG. 7F): without any influence
reduction of tumor growth, compared to i.p. administration of DON (Example 4) (Panc02 cells [3]; FIG. 5A, B): less evident
early deaths of treated mice (Panc02 cells [3]; FIG. 5C): No early deaths
survival of treated mice (Panc02 cells [4]; DON 400 μg i.p., FIG. 6C): significantly prolonged
efficacy of the therapy (Panc02 cells [4]; DON 400 μg i.t. in left tumor, FIG. 6): did not improve the efficacy
